Reference: US11390624B2, “Pyrazolopyridines and triazolopyridines as A2A / A2B inhibitors” (Incyte Corporation, priority 2019, dated 2022)

What was measured:
[1] = molecular target: Adenosine A2A receptor (Tag-lite Adenosine A2A labeled cells) (Homo sapiens (Human), UniProt P29274); assay: A2A Tag-lite HTRF Assay; format: binding; details: displacement of Adenosine A2A Receptor Red antagonist fluorescent ligand, 12.5 nM
Source text: The final concentration of DMSO was 1%.

[2] = molecular target: human adenosine A2B receptor (Homo sapiens (Human), UniProt P29275); assay: Adenosine A2B Receptor Cyclic AMP GS Assay; format: cell-based; details: HEK-293 cells, agonist NECA at 12 nM, cAMP accumulation; read-out: A2B—cAMP_EC50
human adenosine A2B receptor, sequence (P29275 whole entry): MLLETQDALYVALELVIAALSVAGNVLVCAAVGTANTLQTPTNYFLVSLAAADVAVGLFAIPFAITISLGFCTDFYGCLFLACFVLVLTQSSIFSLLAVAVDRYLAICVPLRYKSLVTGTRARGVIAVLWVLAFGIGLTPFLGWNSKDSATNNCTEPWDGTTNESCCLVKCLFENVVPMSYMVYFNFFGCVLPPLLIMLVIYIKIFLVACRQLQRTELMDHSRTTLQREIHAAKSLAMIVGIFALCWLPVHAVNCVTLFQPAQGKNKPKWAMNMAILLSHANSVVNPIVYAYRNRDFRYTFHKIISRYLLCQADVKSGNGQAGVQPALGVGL
Method: Stably transfected HEK-293 cells expressing the human adenosine A2B receptor (Perkin Elmer) were maintained in MEM culture medium with 10% FBS and 100 μg/mL Geneticin (Life Technologies). 18 to 24 hours prior to assay, geneticin was removed from culture. The cisbio cAMP-GS Dynamic kit utilizing the FRET (Fluorescence Resonance Energy Transfer) technology was used to measure cAMP accumulation in the cells. Compounds of the present disclosure at an appropriate concentration were mixed with 10000 cells/well in white 96 well half area plates (Perkin Elmer) for 30 min at room temperature gently shaking. Agonist, NECA (R&D Technologies) at 12 nM was added to each well for 60 min at room temperature gently shaking. Detection reagents, d2-labeled cAMP (acceptor) and anti-cAMP cryptate (donor) were added to each well for 60 min at RT gently shaking. Plates were read on Pherastar (BMG Labtech), fluorescence ratio 665/620 was calculated and EC50 determination was performed by fitting the curve of percent of control versus the log of the compound concentration using GraphPad Prism.

Adenosine A2A receptor (Tag-lite Adenosine A2A labeled cells), sequence (P29274 whole entry): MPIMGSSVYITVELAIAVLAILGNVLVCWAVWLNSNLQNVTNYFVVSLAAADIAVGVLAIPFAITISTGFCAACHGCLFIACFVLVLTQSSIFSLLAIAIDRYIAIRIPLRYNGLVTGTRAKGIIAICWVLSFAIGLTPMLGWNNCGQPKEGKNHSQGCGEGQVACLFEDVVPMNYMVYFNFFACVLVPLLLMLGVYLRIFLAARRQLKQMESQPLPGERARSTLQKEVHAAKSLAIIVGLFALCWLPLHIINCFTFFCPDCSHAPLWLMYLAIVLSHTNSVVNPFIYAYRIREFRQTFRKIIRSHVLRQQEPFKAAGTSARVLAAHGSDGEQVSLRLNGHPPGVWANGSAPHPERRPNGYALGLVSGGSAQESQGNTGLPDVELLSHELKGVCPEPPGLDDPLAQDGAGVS

How did the Ki [1] turn out when N#Cc1cccc(-c2nc(N)c3cn(Cc4ccccn4)nc3c2-c2ccncn2)c1 [Example 1, 3-(4-amino-2-(pyridin-2-ylmethyl)-7-(pyrimidin-4-yl)-2H-pyrazolo[4,3-c]pyridin-6-yl)benzonitrile] was run?
The Ki was at most 10 nM.

And the EC50 [2]?
Its EC50 is 10 to 100 nM.

Which Ki [1] does the source give for CCn1nccc1-c1c(-c2cccc(C#N)c2)nc(N)c2cn(Cc3ccccn3)nc12 [Example 2, 3-(4-amino-7-(1-ethyl-1H-pyrazol-5-yl)-2-(pyridin-2-ylmethyl)-2H-pyrazolo[4,3-c]pyridin-6-yl)benzonitrile] here?
The Ki was at most 10 nM.

What about the EC50 [2] of the same compound?
The EC50 was at most 10 nM.

What does the source list for N#Cc1cccc(-c2nc(N)c3cn(Cc4ncccc4F)nc3c2-c2ccncn2)c1 [Example 3, 3-(4-amino-2-((3-fluoropyridin-2-yl)methyl)-7-(pyrimidin-4-yl)-2H-pyrazolo[4,3-c]pyridin-6-yl)benzonitrile]?
Ki [1]: ≤ 10 nM; EC50 [2]: 10 to 100 nM

For Cn1ccc(Cn2cc3c(N)nc(-c4cccc(C#N)c4)c(-c4ccncn4)c3n2)n1 [Example 4, 3-(4-amino-2-((1-methyl-1H-pyrazol-3-yl)methyl)-7-(pyrimidin-4-yl)-2H-pyrazolo[4,3-c]pyridin-6-yl)benzonitrile], which Ki [1] is on record?
Its Ki is at most 10 nM.

What about the EC50 [2] of the same compound?
The EC50 was 10 to 100 nM.

Which Ki [1] does the source give for N#Cc1cccc(-c2nc(N)c3cn(Cc4ccccn4)nc3c2-c2ccncc2)c1 [Example 6, 3-(4-amino-2-(pyridin-2-ylmethyl)-7-(pyridin-4-yl)-2H-pyrazolo[4,3-c]pyridin-6-yl)benzonitrile] here?
Its Ki is at most 10 nM.

And the EC50 [2]?
Its EC50 is at most 10 nM.

How did the Ki [1] turn out when N#Cc1cccc(-c2nc(N)c3cn(Cc4ccccc4F)nc3c2-c2ccncn2)c1 [Example 7, 3-(4-amino-2-(2-fluorobenzyl)-7-(pyrimidin-4-yl)-2H-pyrazolo[4,3-c]pyridin-6-yl)benzonitrile] was run?
The Ki was at most 10 nM.

And the EC50 [2]?
The EC50 was at most 10 nM.

Which results are given for N#Cc1cccc(-c2nc(N)c3nn(Cc4ccccn4)cc3c2-c2ccncn2)c1 [Example 8, 3-(7-amino-2-(pyridin-2-ylmethyl)-4-(pyrimidin-4-yl)-2H-pyrazolo[3,4-c]pyridin-5-yl)benzonitrile]?
Ki [1]: ≤ 10 nM; EC50 [2]: ≤ 10 nM

With CCn1nccc1-c1c(-c2cccc(C#N)c2)nc(N)c2nn(Cc3ccccn3)cc12 [Example 9, 3-(7-amino-4-(1-ethyl-1H-pyrazol-5-yl)-2-(pyridin-2-ylmethyl)-2H-pyrazolo[3,4-c]pyridin-5-yl)benzonitrile] as the compound, how does the Ki [1] read?
Its Ki is at most 10 nM.

And the EC50 [2]?
The EC50 was at most 10 nM.

For Cc1cccc(Cn2cc3c(-c4ccncn4)c(-c4cccc(C#N)c4)nc(N)c3n2)n1 [Example 10, 3-(7-amino-2-((6-methylpyridin-2-yl)methyl)-4-(pyrimidin-4-yl)-2H-pyrazolo[3,4-c]pyridin-5-yl)benzonitrile], which Ki [1] is on record?
Its Ki is at most 10 nM.

And the EC50 [2]?
Its EC50 is at most 10 nM.

CCn1nccc1-c1c(-c2cccc(C#N)c2)nc(N)c2nn(Cc3cccc(C)n3)cc12 [Example 11, 3-(7-amino-4-(1-ethyl-1H-pyrazol-5-yl)-2-((6-methylpyridin-2-yl)methyl)-2H-pyrazolo[3,4-c]pyridin-5-yl)benzonitrile] was tested. Which Ki [1] did it give?
The Ki was at most 10 nM.

What about the EC50 [2] of the same compound?
Its EC50 is 10 to 100 nM.

For Cc1ncoc1-c1c(-c2cccc(C#N)c2)nc(N)c2nn(Cc3ccccn3)cc12 [Example 12, 3-(7-amino-4-(4-methyloxazol-5-yl)-2-(pyridin-2-ylmethyl)-2H-pyrazolo[3,4-c]pyridin-5-yl)benzonitrile], which Ki [1] is on record?
Its Ki is at most 10 nM.

What about the EC50 [2] of the same compound?
The EC50 was 10 to 100 nM.

Which Ki [1] does the source give for Cc1cccc(Cn2cc3c(-c4ocnc4C)c(-c4cccc(C#N)c4)nc(N)c3n2)n1 [Example 13] here?
The Ki was at most 10 nM.

And the EC50 [2]?
Its EC50 is 10 to 100 nM.

What does the source list for CCn1nccc1-c1c(-c2cccc(C#N)c2)nc(N)c2nn(Cc3ncccc3F)cc12 [Example 14, 3-(7-amino-4-(1-ethyl-1H-pyrazol-5-yl)-2-((3-fluoropyridin-2-yl)methyl)-2H-pyrazolo[3,4-c]pyridin-5-yl)benzonitrile]?
Ki [1]: ≤ 10 nM; EC50 [2]: ≤ 10 nM

For N#Cc1cccc(-c2nc(N)c3nn(Cc4ccccn4)nc3c2-c2ccncn2)c1 [Example 16, 3-(4-amino-2-(pyridin-2-ylmethyl)-7-(pyrimidin-4-yl)-2H-[1,2,3]triazolo[4,5-c]pyridin-6-yl)benzonitrile], which Ki [1] is on record?
The Ki was at most 10 nM.

And the EC50 [2]?
The EC50 was at most 10 nM.

Which Ki [1] does the source give for Cc1ncoc1-c1c(-c2cccc(C#N)c2)nc(N)c2nn(Cc3ccccn3)nc12 [Example 17, 3-(4-amino-7-(4-methyloxazol-5-yl)-2-(pyridin-2-ylmethyl)-2H-[1,2,3]triazolo[4,5-c]pyridin-6-yl)benzonitrile] here?
Its Ki is at most 10 nM.

And the EC50 [2]?
Its EC50 is at most 10 nM.

CCn1nccc1-c1c(-c2cccc(C#N)c2)nc(N)c2nn(Cc3ccccn3)nc12 [Example 18, 3-(4-amino-7-(1-ethyl-1H-pyrazol-5-yl)-2-(pyridin-2-ylmethyl)-2H-[1,2,3]triazolo[4,5-c]pyridin-6-yl)benzonitrile] was tested. Which Ki [1] did it give?
The Ki was at most 10 nM.

And the EC50 [2]?
Its EC50 is at most 10 nM.

What does the source list for Cc1cnccc1-c1c(-c2cccc(C#N)c2)nc(N)c2nn(Cc3ccccn3)nc12 [Example 19, 3-(4-amino-7-(3-methylpyridin-4-yl)-2-(pyridin-2-ylmethyl)-2H-[1,2,3]triazolo[4,5-c]pyridin-6-yl)benzonitrile]?
Ki [1]: ≤ 10 nM; EC50 [2]: ≤ 10 nM

Which Ki [1] does the source give for Cc1nc(CO)c(-c2c(-c3cccc(C#N)c3)nc(N)c3nn(Cc4ccccn4)nc23)o1 [Example 20, 3-(4-amino-7-(4-(hydroxymethyl)-2-methyloxazol-5-yl)-2-(pyridin-2-ylmethyl)-2H-[1,2,3]triazolo[4,5-c]pyridin-6-yl)benzonitrile] here?
Its Ki is at most 10 nM.

And the EC50 [2]?
The EC50 was at most 10 nM.

With N#Cc1cccc(-c2nc(N)c3nn(Cc4ccccn4)nc3c2-c2cnco2)c1 [Example 21, 3-(4-amino-7-(oxazol-5-yl)-2-(pyridin-2-ylmethyl)-2H-[1,2,3]triazolo[4,5-c]pyridin-6-yl)benzonitrile] as the compound, how does the Ki [1] read?
The Ki was at most 10 nM.

And the EC50 [2]?
The EC50 was at most 10 nM.

Which results are given for N#Cc1cccc(-c2nc(N)c3nn(Cc4ccccn4)nc3c2-c2ccc3ncccc3c2)c1 [Example 22, 3-(4-amino-2-(pyridin-2-ylmethyl)-7-(quinolin-6-yl)-2H-[1,2,3]triazolo[4,5-c]pyridin-6-yl)benzonitrile]?
Ki [1]: ≤ 10 nM; EC50 [2]: ≤ 10 nM

Which results are given for N#Cc1cccc(-c2nc(N)c3nn(Cc4ccccn4)nc3c2-c2ccc3nccnc3c2)c1 [Example 23, 3-(4-amino-2-(pyridin-2-ylmethyl)-7-(quinoxalin-6-yl)-2H-[1,2,3]triazolo[4,5-c]pyridin-6-yl)benzonitrile]?
Ki [1]: ≤ 10 nM; EC50 [2]: 100 to 1000 nM

For Cc1cccc(Cn2nc3c(N)nc(-c4cccc(C#N)c4)c(-c4ccncn4)c3n2)n1 [Example 24, 3-(4-amino-2-((6-methylpyridin-2-yl)methyl)-7-(pyrimidin-4-yl)-2H-[1,2,3]triazolo[4,5-c]pyridin-6-yl)benzonitrile], which Ki [1] is on record?
The Ki was at most 10 nM.

What about the EC50 [2] of the same compound?
The EC50 was at most 10 nM.

With Cc1cccc(Cn2nc3c(N)nc(-c4cccc(C#N)c4)c(-c4ccncc4)c3n2)n1 [Example 25, 3-(4-amino-2-((6-methylpyridin-2-yl)methyl)-7-(pyridin-4-yl)-2H-[1,2,3]triazolo[4,5-c]pyridin-6-yl)benzonitrile] as the compound, how does the Ki [1] read?
Its Ki is at most 10 nM.

What about the EC50 [2] of the same compound?
Its EC50 is at most 10 nM.

Which results are given for Cc1cccc(Cn2nc3c(N)nc(-c4cccc(C#N)c4)c(-c4ccncc4C)c3n2)n1 [Example 26, 3-(4-amino-2-((6-methylpyridin-2-yl)methyl)-7-(3-methylpyridin-4-yl)-2H-[1,2,3]triazolo[4,5-c]pyridin-6-yl)benzonitrile]?
Ki [1]: ≤ 10 nM; EC50 [2]: ≤ 10 nM
